From patent publication US8609616B2, “Strontium-containing compounds for use in the prevention or treatment of necrotic bone conditions” (Osteologix A/S, priority 2004, dated 2013) come the findings set out here.

In the experiment the test system is animal model of osteonecrosis. The experiment can be described thus: Effect of strontium malonate in an animal model of osteonecrosis (necrotic bone graft in titanium chamber, histology). The class given is in vivo, rat. The note with it: male Sprague-Dawley rats, necrotic bone graft in tibia, 1.6 g/l in drinking water ad libitum (approx. 120 mg strontium malonate/day), 6 weeks; mean (±SD); p=0.038 vs calcium malonate control 2.24 (±1.00). From the text:
The rationale for the study was to assess the ability of strontium to act as a therapeutic and bone growth promoting (i.e. pro-anabolic) agent in an animal model of osteonecrosis. […] The necrotic graft was degraded, while ingrowth of new bone occurred. At termination of the experiment, the structural grafts was removed and analyzed by histology to quantify both the degradation of the necrotic graft as well as ingrowth of new bone. Concomitant treatment with anabolic and/or anti-resorptive agents may be given after the insertion of the necrotic graft, and the effect monitored after termination of the experiment. This rat model has previously been described (Astrand J, Aspenberg P. BMC Musculoskelet Disord. 2002; 3(1):19).
The salts were prepared in a solution of 1.6 g/l, which is close to saturation (22-25° C.). Thus extensive stirring was required to completely dissolve the substances. A new batch of drinking water was prepared fresh every week for the duration of the experiment. When not in use the solution was stored at room temperature in a closed container. […]
After careful removal from the titanium chamber, the grafts were decalcified in 10% formic acid, 2% formaldehyde for 14 days. […] Each section was subsequently stained with hematoxylin and eosin, and visually scored for appearance of degradation of the necrotic graft as well as ingrowth of new bone.

For the molecule `O=C([O-])CC(=O)[O-].[Sr+2]` [strontium malonate], the “average ingrowth of new bone (ingrowth distance)” value was 3.43 (±1.35 (SD)) mm.
